Assay results: patent publication US7618968B2, “Aryl triazines as LPAAT-β inhibitors and uses thereof” (Cell Therapeutics, Inc., priority 2001, dated 2009)
pIC50: −log10 of the molar value.

Target: T1, LPAAT-β (Homo sapiens, UniProt O15120)
T1 construct: the full-length human LPAAT-β cDNA was amplified by PCR; poly-histidine tag (from pFastBac HTc vector) (N); made in house; host or cells: Sf9 insect cells (baculovirus); membrane fraction used
T1 sequence (O15120 24-278): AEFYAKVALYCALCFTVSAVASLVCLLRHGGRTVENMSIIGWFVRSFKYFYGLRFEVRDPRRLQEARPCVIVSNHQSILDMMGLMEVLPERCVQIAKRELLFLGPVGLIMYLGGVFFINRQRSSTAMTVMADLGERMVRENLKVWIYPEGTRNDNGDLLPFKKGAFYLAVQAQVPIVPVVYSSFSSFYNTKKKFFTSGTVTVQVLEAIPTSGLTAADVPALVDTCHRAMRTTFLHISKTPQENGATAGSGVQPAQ
Test: LPAAT-β cell-free assay (colorimetric primary screen, radiometric/fluorescent TLC secondary assay)
Format: biochemical
Conditions: Sf9 cell membrane overexpressing LPAAT-β
Source text: A. Production of Recombinant LPAAT-β for Assays
For the construction of Baculovirus expression vectors, the full-length human LPAAT-β cDNA was amplified by PCR from the DNA template pCE9.LPAAT-β (West et al., DNA Cell Biol. 16:691-701 (1997)) using the primers 5′-[…] […] […] […]-3′ (olpb1F; SEQ ID NO:1) and 5′-[…] […] […]-3′ (olpb1R; SEQ ID NO:2). The ˜870 bp fragment generated was reamplified by PCR using the primers 5′[…] […] […] […] ATC-3′ (olpb2F; SEQ ID NO:3) and 5′-[…] […] […]-3′ (olpb1R; SEQ ID NO:2). The ˜890 bp fragment generated was then cleaved with Sal I and Xba I for insertion into pFastBac™ HTc vector (Life Technologies, Gaithersberg, Md.) between the Sal I and Xba I sites for the generation of the plasmid pFB.LPAAT-β. This plasmid was then transformed into E. coli DH10Bac™ (Life Technologies, Gaithersberg, Md.) for the generation of recombinant Bacmid DNA for transfection in HighFive (Invitrogen, San Diego, Calif.) or SF9 insect cells for the production of recombinant Baculovirus stocks using the protocol described in the Bac-to-Bac® Baculovirus Expression System (Life Technologies, Gaithersberg, Md.), a eukaryotic expression system for generating recombinant baculovirus through site-specific transposition in E. coli. Viral stocks harvested from the transfected cells can then be used to infect fresh insect cells for the subsequence expression of LPAAT-β fusion protein with a poly-histidine tag and a myc-epitope near its N-terminus. The membrane fraction from these Sf9 cells would be the source of LPAAT enzyme.
B. Preparation of Cell Membranes from Sf9 Cells
For the preparation of membranes from Sf9 Cells, all steps are performed on ice or at 4° C. Sf9 cell pellets (˜10^8 cells) were thawed and resuspended in 1-2 ml of buffer A (20 mM Hepes, pH 7.5, 1 mM DTT, 1 mM EDTA, 20% w/v glycerol, 1 mM Benzamidine, 1 μg/ml soybean trypsin inhibitor (SBTI), 1 μg/ml pepstatin A) w/o DTT but with 1 mM Pefabloc. The cells were lysed by sonication using a Branson Sonifier at output=2, duty cycle=2, 10 pulses each at 10s. with the tip of small sonicator probe submerged but not touching the walls. DTT was then added to 1 mM from a 1 M stock. The samples were centrifuged at 1500 rpm for 5 min. The low speed supernatant was saved and centrifuged (TLA 100.3 rotor, polycarbonate tubes, 2 ml/tube or 1.5 ml/tube minimum) at 100000×g for 1 hr. The high speed pellet was resuspend in Buffer A with a probe sonicator (10 pulses @ output #2 and duty cycle 20%) as a source of LPAAT enzyme.
C. Assay of LPAAT-β Activity
LPAAT-β catalyzes the transfer of an acyl group from a donor such as acyl-CoA to LPA. The transfer of the acyl group from acyl-CoA to LPA leads to the release of free CoA, which can be reacted with the thiol reagent, 5,5′-dithiobis(2-nitrobenzoic acid) (DTNB). The reaction between DTNB and the free sulfhydryl group from CoA generates a yellow-colored product, 3-carboxylato-4-nitrothiophenolate (CNP), that absorbs at 413 nm. LPAAT-β derived from Sf9 cell membrane overexpressing LPAAT-β were resuspended in HEPES saline buffer (20 mM HEPES pH 7.5, 150 mM NaCl), 1 mg/ml BSA and 72 μl aliquots were distributed into 96-well microtiter plates. 8 μl of compound of interest at 200 μM dissolved in 100% DMSO was added into each well. 20 μl of 1 mM 18:1-CoA and 1 mM sn-1-18:1 lysoPA was then added to each well to initiate the reaction and allowed to run at room temperature for 25 min. 100 μl of 1 mM DTNB in 100% ethanol was then added to each well to quench the reaction and for color development. The absorbance at 405 nm, measured using a spectrophotometer plate reader, is proportional to the activity of LPAAT-β in the sample. This colorimetric assay was used for the high throughput screening of LPAAT inhibitors.

Compound	pIC50
Nc1nc(Nc2ccc(Br)cc2)nc(-c2cc(Cl)ccc2C(F)(F)F)n1 [Example 40, N-(4-bromophenyl)-6-(5-chloro-2-trifluoromethylphenyl)-[1,3,5]triazine-2,4-diamine]	5.59
NCc1nc(Nc2ccc(Br)cc2)nc(-c2cc(Cl)ccc2Cl)n1 [Example 27]	5.57
CCc1ccc(Nc2nc(N)nc(-c3cc(Cl)ccc3C)n2)cc1 [Example 38, 6-(5-Chloro-2-methyl-phenyl)-N-(4-ethyl-phenyl)-[1,3,5]triazine-2,4-diamine]	6.00
CCOc1ccc(Cl)cc1-c1nc(N)nc(Nc2ccc(C(O)CO)cc2)n1 (centres unmarked) [Example 69]	5.59
Nc1nc(Nc2cccc(Cl)c2)nc(-c2cc(Cl)ccc2Cl)n1 [Example 90, N-(3-chlorophenyl)-6-(2,5-dichlorophenyl)-[1,3,5]triazine-2,4-diamine]	5.32
CCOc1ccc(Cl)cc1-c1nc(N)nc(Nc2ccc(C)cc2)n1 [Example 61, 6-(5-Chloro-2-ethoxyphenyl)-N-p-tolyl-[1,3,5]triazine-2,4-diamine]	5.64
COc1ccc(Cl)cc1-c1nc(N)nc(Nc2ccccc2)n1 [Example 2, 6-(5-Chloro-2-methoxyphenyl)-N-phenyl-[1,3,5]triazine-2,4-diamine]	5.64
Cc1ccc(Cl)cc1-c1nc(Nc2ccc(Cl)cc2)nc(N2CCCCC2)n1 [Example 31]	5.22

Now those with a higher pIC50, led by results:

pIC50	Compound
6.15	C=Cc1ccc(Nc2nc(N)nc(-c3cc(Cl)ccc3C)n2)cc1 [Example 67, 6-(5-Chloro-2-methyl-phenyl)-N-(4-vinyl-phenyl)-[1,3,5]triazine-2,4-diamine]
7.26	Cc1ccc(Cl)cc1-c1nc(N)nc(Nc2ccc3cn[nH]c3c2)n1 [Example 13, 6-(5-Chloro-2-Methyl-Phenyl)-N-(1H-Indazol-6-yl)-[1,3,5]Triazine-2,4-Diamine]
6.89	Cc1ccc(Cl)cc1-c1nc(N)nc(Nc2ccc(CF)cc2)n1 [Example 68, 6-(5-Chloro-2-methyl-phenyl)-N-(4-fluoromethyl-phenyl)-[1,3,5]-triazine-2,4-diamine]
7.40	Nc1nc(Nc2ccc(Cl)cc2)nc(-c2cc(Br)ccc2Cl)n1 [Example 45, 6-(5-Bromo-2-chloro-phenyl)-N-(4-chloro-phenyl)-[1,3,5]triazine-2,4-diamine]
6.68	Cc1ccc(Nc2nc(N)nc(-c3cc(Cl)ccc3Cl)n2)cc1 [Example 49, 6-(2,5-Dichloro-phenyl)-N-p-tolyl-[1,3,5]triazine-2,4-diamine]
6.10	Nc1nc(Nc2ccc(Cl)cc2)nc(-c2cccc(Cl)c2)n1 [Example 16, N-(4-chlorophenyl)-6-(3-chlorophenyl)-[1,3,5]triazine-2,4-diamine]
8.40	Cc1ccc(Cl)cc1-c1nc(Cl)nc(Nc2ccc3cn[nH]c3c2)n1 [Example 26, [4-Chloro-6-(5-chloro-2-methyl-phenyl)-[1,3,5]triazin-2-yl]-(1H-indazol-6-yl)-amine]
6.74	Cc1ccc(Cl)c(-c2nc(N)nc(Nc3ccc(Cl)cc3)n2)c1 [Example 83, 6-(2-chloro-5-methyl-phenyl)-N-(4-chloro-phenyl)-[1,3,5]triazine-2,4-diamine]
6.19	COCc1ccc(Nc2nc(N)nc(-c3cc(Cl)ccc3C)n2)cc1 [Example 78, 6-(5-Chloro-2-methyl-phenyl)-N-(4-methoxy-methyl-phenyl)-[1,3,5]triazine-2,4-diamine]
6.64	COc1ccc(Cl)cc1-c1nc(N)nc(Nc2ccc(C)cc2)n1 [Example 79, 6-(5-Chloro-2-methoxy-phenyl)-N-p-tolyl-[1,3,5]triazine-2,4-diamine]
6.96	Nc1nc(Nc2ccc3cn[nH]c3c2)nc(-c2cc(Cl)ccc2Cl)n1 [Example 48, 6-(2,5-Dichloro-phenyl)-N-(1H-indazol-6-yl)-[1,3,5]triazine-2,4-diamine]
6.55	C#Cc1ccc(Nc2nc(N)nc(-c3cc(Cl)ccc3C)n2)cc1 [Example 42, 6-(5-Chloro-2-methyl-phenyl)-N-(4-ethynyl-phenyl)-[1,3,5]triazine-2,4-diamine]
